Test results reported in US20230234948A1, “CYCLOPROPYL DIHYDROQUINOLINE SULFONAMIDE COMPOUNDS” (AMGEN INC., priority 2020, published 2023).

molecular target: T1, Human NaV1.7 (Homo sapiens, UniProt Q15858); experiment: Ionworks Barracuda (IWB) automated patch clamp assay; type: cell-based; conditions: human NaV1.7 in HEK cells, population patch-clamp, state- and use-dependent voltage protocol; read-out: hNaV1.7 IWB-U IC50
T1 construct: expressed in transfected cells; host or cells: Spiking HEK cells (without Kir2.1 transfection)
T1 sequence (Q15858 whole entry): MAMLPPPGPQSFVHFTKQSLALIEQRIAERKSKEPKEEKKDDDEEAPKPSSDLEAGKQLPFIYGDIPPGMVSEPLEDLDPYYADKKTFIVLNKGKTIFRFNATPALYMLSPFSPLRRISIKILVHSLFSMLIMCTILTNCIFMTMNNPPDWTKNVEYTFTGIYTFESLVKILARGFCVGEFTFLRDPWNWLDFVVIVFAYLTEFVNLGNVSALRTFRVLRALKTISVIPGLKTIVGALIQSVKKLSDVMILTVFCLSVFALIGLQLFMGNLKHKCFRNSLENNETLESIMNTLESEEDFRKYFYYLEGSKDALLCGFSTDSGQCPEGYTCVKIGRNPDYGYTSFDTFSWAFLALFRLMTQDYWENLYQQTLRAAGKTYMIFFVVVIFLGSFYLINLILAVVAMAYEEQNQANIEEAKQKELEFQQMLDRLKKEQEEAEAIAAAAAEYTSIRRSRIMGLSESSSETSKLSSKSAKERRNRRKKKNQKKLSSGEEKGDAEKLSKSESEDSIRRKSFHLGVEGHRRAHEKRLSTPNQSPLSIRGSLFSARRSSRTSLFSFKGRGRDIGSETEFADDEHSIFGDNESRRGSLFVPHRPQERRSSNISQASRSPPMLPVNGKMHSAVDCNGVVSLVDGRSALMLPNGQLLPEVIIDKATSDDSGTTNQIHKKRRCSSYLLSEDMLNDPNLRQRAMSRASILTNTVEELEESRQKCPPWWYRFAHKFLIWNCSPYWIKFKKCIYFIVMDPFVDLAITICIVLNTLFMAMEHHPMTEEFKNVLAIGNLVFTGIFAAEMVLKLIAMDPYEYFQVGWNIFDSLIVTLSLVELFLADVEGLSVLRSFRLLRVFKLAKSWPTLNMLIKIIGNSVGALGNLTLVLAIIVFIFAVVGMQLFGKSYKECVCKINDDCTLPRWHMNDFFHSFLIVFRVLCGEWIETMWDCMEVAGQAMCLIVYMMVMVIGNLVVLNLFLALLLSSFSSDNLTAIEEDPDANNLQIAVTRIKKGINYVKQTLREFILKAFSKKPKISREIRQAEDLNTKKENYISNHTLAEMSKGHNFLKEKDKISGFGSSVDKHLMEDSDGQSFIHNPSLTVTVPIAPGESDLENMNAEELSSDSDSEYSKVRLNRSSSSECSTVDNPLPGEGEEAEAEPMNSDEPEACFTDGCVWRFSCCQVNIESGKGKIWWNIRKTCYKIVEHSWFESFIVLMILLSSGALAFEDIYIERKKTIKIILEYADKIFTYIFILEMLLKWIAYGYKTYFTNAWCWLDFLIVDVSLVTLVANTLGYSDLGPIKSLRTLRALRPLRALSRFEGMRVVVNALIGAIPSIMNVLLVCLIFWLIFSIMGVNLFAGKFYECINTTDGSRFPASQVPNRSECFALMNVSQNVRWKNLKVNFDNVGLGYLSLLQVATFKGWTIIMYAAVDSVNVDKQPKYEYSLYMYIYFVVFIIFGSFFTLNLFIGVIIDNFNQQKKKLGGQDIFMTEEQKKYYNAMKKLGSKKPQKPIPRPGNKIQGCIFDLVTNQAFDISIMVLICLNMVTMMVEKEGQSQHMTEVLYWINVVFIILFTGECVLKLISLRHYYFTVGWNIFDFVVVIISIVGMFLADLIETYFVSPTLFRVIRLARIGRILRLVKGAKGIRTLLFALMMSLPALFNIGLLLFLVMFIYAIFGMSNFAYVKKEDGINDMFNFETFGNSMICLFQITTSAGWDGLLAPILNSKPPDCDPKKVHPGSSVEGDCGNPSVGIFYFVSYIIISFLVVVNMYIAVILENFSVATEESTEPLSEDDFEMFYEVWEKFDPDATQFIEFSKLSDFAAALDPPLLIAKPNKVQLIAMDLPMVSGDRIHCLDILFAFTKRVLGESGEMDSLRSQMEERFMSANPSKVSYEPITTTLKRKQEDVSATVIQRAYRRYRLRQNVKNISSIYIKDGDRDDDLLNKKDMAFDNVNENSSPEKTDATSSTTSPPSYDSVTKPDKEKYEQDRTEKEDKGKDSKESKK
Method: Ionworks Barracuda (IWB) Automated Patch Clamp Assay (Same Protocol for Both Human and Mouse)
Human NaV1.7 currents were recorded in population patch-clamp mode with the IWB automated electrophysiology system (Molecular Devices, LLC, Sunnyvale, Calif.). Spiking HEK cells (without Kir2.1 transfection) were cultured and prepared for recordings as previously described for IonWorks Quattro testing^1. The external solution consisted of the following (in mM): NaCl 140, KCl 5, CaCl2 2, MgCl2 1, HEPES 10, and glucose 11, pH 7.4, with N-methyl-D-glucamine at 320 mOsmol. […] From a holding potential of −110 mV, currents were elicited by a train of 26 depolarizations of 150 ms duration to −20 mV at a frequency of 5 Hz. Cells were then clamped to −20 mV for a period of 4 minutes in the presence of a single concentration of test compound. Following this compound incubation period, cells were clamped to −110 mV for three seconds to recover unbound channels and put through the same 26 pulse voltage protocol as above. Peak inward current during the 26th pulse to −20 mV in the presence of compound was divided by the peak inward current evoked by the 26th pulse to −20 mV in the absence of compound to determine percent inhibition. Concentration-response curves of percent inhibition as a function of concentration were generated to calculate IC50 values as described in Kornecook, T. J.; Yin, R.; Altmann, S.; et al. Pharmacologic Characterization of AMG8379, a Potent and Selective Small Molecule Sulfonamide Antagonist of the Voltage-Gated Sodium Channel NaV1. 7.
The potency of the compounds of the present invention were evaluated on human NaV1.7 channels using the above described IonWorks Barracuda automated electrophysiology platform that evaluates the ability of compounds to block sodium conductance through NaV1.7 channels. A voltage-protocol that prosecutes both state-dependent as well as use-dependent inhibition was used as these modes of action are thought to be more relevant for the native state of NaV1.7 channels in pain sensing neurons in vivo.

Row | Compound | IC50 [nM]
1 | COc1cc([C@@H]2C[C@H]2C(F)(F)F)c(F)cc1-n1c(=O)ccc2cc(S(=O)(=O)Nc3ccon3)ccc21 (atropisomer, axis not shown; (P)) [Example 5, (P)-1-(5-fluoro-2-methoxy-4-((1R,2R)-2-(trifluoromethyl)cyclopropyl)phenyl)-N-(isoxazol-3-yl)-2-oxo-1,2-dihydroquinoline-6-sulfonamide] | 9
2 | COc1cc([C@@H]2C[C@H]2c2ccccc2)c(F)cc1-n1c(=O)ccc2cc(S(=O)(=O)Nc3ccon3)ccc21 (atropisomer, axis not shown; (P)) [Example 8, (P)-1-(5-fluoro-2-methoxy-4-((1R,2R)-2-phenylcyclopropyl)phenyl)-N-(isoxazol-3-yl)-2-oxo-1,2-dihydroquinoline-6-sulfonamide] | 8
3 | COc1cc([C@H]2C[C@@H]2c2ccccc2)c(F)cc1-n1c(=O)ccc2cc(S(=O)(=O)Nc3ccon3)ccc21 (atropisomer, axis not shown; (P)) [Example 9, (P)-1-(5-fluoro-2-methoxy-4-((1S,2S)-2-phenylcyclopropyl)phenyl)-N-(isoxazol-3-yl)-2-oxo-1,2-dihydroquinoline-6-sulfonamide] | 4
4 | COc1cc([C@H]2CC2(F)F)c(F)cc1-n1c(=O)ccc2cc(S(=O)(=O)Nc3ccon3)ccc21 (atropisomer, axis not shown; (P)) [Example 10, (P)-(R)-1-(4-(2,2-difluorocyclopropyl)-5-fluoro-2-methoxyphenyl)-N-(isoxazol-3-yl)-2-oxo-1,2-dihydroquinoline-6-sulfonamide] | 66
5 | COc1cc([C@@H]2CC2(F)F)c(F)cc1-n1c(=O)ccc2cc(S(=O)(=O)Nc3ccon3)ccc21 (atropisomer, axis not shown; (P)) [Example 11, (P)-(S)-1-(4-(2,2-difluorocyclopropyl)-5-fluoro-2-methoxyphenyl)-N-(isoxazol-3-yl)-2-oxo-1,2-dihydroquinoline-6-sulfonamide] | 59
6 | COc1cc([C@H]2C[C@@H]2C(F)(F)F)c(F)cc1-n1c(=O)ccc2cc(S(=O)(=O)Nc3cccnn3)ccc21 (atropisomer, axis not shown; (P)) [Example 17, (P)-1-(5-fluoro-2-methoxy-4-((1S,2S)-2-(trifluoromethyl)cyclopropyl)phenyl)-2-oxo-N-(pyridazin-3-yl)-1,2-dihydroquinoline-6-sulfonamide] | 16
7 | COc1cc([C@@H]2C[C@H]2C(F)(F)F)c(Cl)cc1-n1c(=O)ccc2cc(S(=O)(=O)Nc3ccon3)ccc21 (atropisomer, axis not shown; (P)) [Example 18, (P)-1-(5-chloro-2-methoxy-4-((1R,2R)-2-(trifluoromethyl)cyclopropyl)phenyl)-N-(isoxazol-3-yl)-2-oxo-1,2-dihydroquinoline-6-sulfonamide] | 7
8 | COc1cc([C@@H]2C[C@H]2C(F)(F)F)c(F)cc1-n1c(=O)ccc2cc(S(=O)(=O)Nc3ncccn3)ccc21 (atropisomer, axis not shown; (P)) [Example 20, (P)-1-(5-fluoro-2-methoxy-4-((1R,2R)-2-(trifluoromethyl)cyclopropyl)phenyl)-2-oxo-N-(pyrimidin-2-yl)-1,2-dihydroquinoline-6-sulfonamide] | 24
9 | COc1cc(C2(C(F)(F)F)CC2)c(Cl)cc1-n1c(=O)ccc2cc(S(=O)(=O)Nc3ccon3)ccc21 (atropisomer, axis not shown; (P)) [Example 24, (P)-1-(5-chloro-2-methoxy-4-(1-(trifluoromethyl)cyclopropyl)phenyl)-N-(isoxazol-3-yl)-2-oxo-1,2-dihydroquinoline-6-sulfonamide] | 6
10 | COc1cc([C@@H]2C[C@H]2C(F)(F)F)c(C)cc1-n1c(=O)ccc2cc(S(=O)(=O)Nc3ncccn3)ccc21 (atropisomer, axis not shown; (P)) [Example 28, (P)-1-(2-methoxy-5-methyl-4-((1R,2R)-2-(trifluoromethyl)cyclopropyl)phenyl)-2-oxo-N-(pyrimidin-2-yl)-1,2-dihydroquinoline-6-sulfonamide] | 42

More lines, in order of falling IC50, values ahead:

Row | IC50 [nM] | Compound
11 | 35 | COc1cc([C@H]2C[C@@H]2C(F)(F)F)c(F)cc1-n1c(=O)ccc2cc(S(=O)(=O)Nc3ncccn3)ccc21 (atropisomer, axis not shown; (P)) [Example 21, (P)-1-(5-fluoro-2-methoxy-4-((1S,2S)-2-(trifluoromethyl)cyclopropyl)phenyl)-2-oxo-N-(pyrimidin-2-yl)-1,2-dihydroquinoline-6-sulfonamide]
12 | 32 | COc1cc([C@H]2C[C@@H]2C(F)(F)F)c(C)cc1-n1c(=O)ccc2cc(S(=O)(=O)Nc3ncccn3)ccc21 (atropisomer, axis not shown; (P)) [Example 29, (P)-1-(2-methoxy-5-methyl-4-((1S,2S)-2-(trifluoromethyl)cyclopropyl)phenyl)-2-oxo-N-(pyrimidin-2-yl)-1,2-dihydroquinoline-6-sulfonamide]
13 | 22 | COc1cc(C2(C(F)(F)F)CC2)c(Cl)cc1-n1c(=O)ccc2cc(S(=O)(=O)Nc3ncccn3)ccc21 (atropisomer, axis not shown; (P)) [Example 25, (P)-1-(5-chloro-2-methoxy-4-(1-(trifluoromethyl)cyclopropyl)phenyl)-2-oxo-N-(pyrimidin-2-yl)-1,2-dihydroquinoline-6-sulfonamide]
14 | 20 | COc1cc([C@@H]2C[C@H]2C)c(F)cc1-n1c(=O)ccc2cc(S(=O)(=O)Nc3ccon3)ccc21 (atropisomer, axis not shown; (P)) [Example 6, (P)-1-(5-fluoro-2-methoxy-4-((1R,2R)-2-methylcyclopropyl)phenyl)-N-(isoxazol-3-yl)-2-oxo-1,2-dihydroquinoline-6-sulfonamide]
15 | 19 | COc1cc([C@@H]2C[C@H]2C(F)(F)F)c(F)cc1-n1c(=O)ccc2cc(S(=O)(=O)Nc3cccnn3)ccc21 (atropisomer, axis not shown; (P)) [Example 16, (P)-1-(5-fluoro-2-methoxy-4-((1R,2R)-2-(trifluoromethyl)cyclopropyl)phenyl)-2-oxo-N-(pyridazin-3-yl)-1,2-dihydroquinoline-6-sulfonamide]
16 | 17 | COc1cc([C@H]2C[C@@H]2C(F)(F)F)c(Cl)cc1-n1c(=O)ccc2cc(S(=O)(=O)Nc3ncccn3)ccc21 (atropisomer, axis not shown; (P)) [Example 12, (P)-1-(5-chloro-2-methoxy-4-((1S,2S)-2-(trifluoromethyl)cyclopropyl)phenyl)-2-oxo-N-(pyrimidin-2-yl)-1,2-dihydroquinoline-6-sulfonamide]
17 | 16 | COc1cc([C@H]2C[C@@H]2C)c(F)cc1-n1c(=O)ccc2cc(S(=O)(=O)Nc3ccon3)ccc21 (atropisomer, axis not shown; (P)) [Example 7, (P)-1-(5-fluoro-2-methoxy-4-((1S,2S)-2-methylcyclopropyl)phenyl)-N-(isoxazol-3-yl)-2-oxo-1,2-dihydroquinoline-6-sulfonamide]
18 | 16 | COc1cc(C2(C(F)(F)F)CC2)c(F)cc1-n1c(=O)ccc2cc(S(=O)(=O)Nc3ncccn3)ccc21 (atropisomer, axis not shown; (P)) [Example 23, (P)-1-(5-fluoro-2-methoxy-4-(1-(trifluoromethyl)cyclopropyl)phenyl)-2-oxo-N-(pyrimidin-2-yl)-1,2-dihydroquinoline-6-sulfonamide]
19 | 12 | COc1cc([C@@H]2C[C@H]2C(F)(F)F)c(Cl)cc1-n1c(=O)ccc2cc(S(=O)(=O)Nc3ncccn3)ccc21 (atropisomer, axis not shown; (P)) [Example 13, (P)-1-(5-chloro-2-methoxy-4-((1R,2R)-2-(trifluoromethyl)cyclopropyl)phenyl)-2-oxo-N-(pyrimidin-2-yl)-1,2-dihydroquinoline-6-sulfonamide]
20 | 11 | COc1cc([C@H]2C[C@@H]2C(F)(F)F)c(F)cc1-n1c(=O)ccc2cc(S(=O)(=O)Nc3ccon3)ccc21 (atropisomer, axis not shown; (P)) [Example 4, (P)-1-(5-fluoro-2-methoxy-4-((1S,2S)-2-(trifluoromethyl)cyclopropyl)phenyl)-N-(isoxazol-3-yl)-2-oxo-1,2-dihydroquinoline-6-sulfonamide]
21 | 6 | COc1cc([C@H]2C[C@@H]2C(F)(F)F)c(Cl)cc1-n1c(=O)ccc2cc(S(=O)(=O)Nc3ccon3)ccc21 (atropisomer, axis not shown; (P)) [Example 19, (P)-1-(5-chloro-2-methoxy-4-((1S,2S)-2-(trifluoromethyl)cyclopropyl)phenyl)-N-(isoxazol-3-yl)-2-oxo-1,2-dihydroquinoline-6-sulfonamide]
